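Each compound was tested at five concentrations against cells in 96-well plates for 48 hours. GI50 = concentration required for 50% inhibition of growth. TGI: concentration producing complete growth inhibition.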
Assays:
Experiment in all cases: NCI anticancer screen, dose series, 48 h
[1] = system: SW-620 colon
[2] = system: SNB-19 CNS
[3] = system: M14 melanoma
[4] = system: UACC-62 melanoma
[5] = system: COLO 205 colon
[6] = system: BT-549 breast
[7] = system: SK-MEL-2 melanoma
[8] = system: PC-3 prostate
[9] = system: SF-295 CNS
[10] = system: MDA-MB-231 breast
[11] = system: RPMI-8226 leukemia
[12] = system: K-562 leukemia
[13] = system: DU-145 prostate
[14] = system: MCF7 breast
[15] = system: U251 CNS
[16] = system: OVCAR-8 ovarian
[17] = system: SR leukemia
[18] = system: HCT-15 colon
[19] = system: SK-OV-3 ovarian
[20] = system: HCT-116 colon
[21] = system: ACHN renal
[22] = system: SNB-75 CNS
[23] = system: UACC-257 melanoma
[24] = system: SN12C renal
[25] = system: NCI-H23 lung
[26] = system: SF-539 CNS
[27] = system: OVCAR-5 ovarian
[28] = system: HOP-92 NSCLC
[29] = system: HOP-62 NSCLC
[30] = system: SF-268 CNS
[31] = system: 786-0 renal
[32] = system: CCRF-CEM leukemia
[33] = system: TK-10 renal
[34] = system: OVCAR-4 ovarian
[35] = system: IGROV1 ovarian
[36] = system: A498 renal
[37] = system: NCI/ADR-RES ovarian
[38] = system: T-47D breast
[39] = system: UO-31 renal
[40] = system: MALME-3M melanoma
[41] = system: CAKI-1 renal
[42] = system: HS 578T breast
[43] = system: EKVX NSCLC
[44] = system: A549 NSCLC
[45] = system: RXF 393 renal
[46] = system: NCI-H522 lung
[47] = system: HCC-2998 colon
[48] = system: MOLT-4 leukemia
[49] = system: NCI-H226 lung
[50] = system: LOX IMVI melanoma
[51] = system: SK-MEL-5 melanoma
[52] = system: OVCAR-3 ovarian
[53] = system: HL-60(TB) leukemia
[54] = system: HT29 colon
[55] = system: KM12 colon
[56] = system: SK-MEL-28 melanoma
[57] = system: NCI-H460 lung
[58] = system: MDA-MB-435

`O=C(Nc1ccc(Oc2cccc(Cl)c2)c(Cl)c1)c1cnccn1` showed a GI50 [1] of 0.216 µM, a TGI [1] of over 50 µM and a GI50 [2] of 0.338 µM. It also gave a TGI [2] of over 50 µM, a GI50 [3] of 0.225 µM and a TGI [3] of over 50 µM. The GI50 [4] was 0.345 µM, the TGI [4] was over 50 µM and the GI50 [5] was 0.208 µM. It also gave a TGI [5] of 16.2 µM, a GI50 [6] of 3.31 µM and a TGI [6] of over 50 µM. For the same compound, the GI50 [7] was 0.352 µM, the TGI [7] was over 50 µM and the GI50 [8] was 1.06 µM. The TGI [8] was over 50 µM, the GI50 [9] was 0.48 µM and the TGI [9] was over 25.1 µM. It also gave a GI50 [10] of 0.452 µM, a TGI [10] of over 40 µM and a GI50 [11] of 0.323 µM. It also gave a TGI [11] of over 50 µM, a GI50 [12] of 0.162 µM and a TGI [12] of over 50 µM. It also gave a GI50 [13] of 0.839 µM, a TGI [13] of over 50 µM and a GI50 [14] of 0.183 µM. For the same compound, the TGI [14] was over 50 µM, the GI50 [15] was 0.245 µM and the TGI [15] was over 22.9 µM. The GI50 [16] was 1.41 µM, the TGI [16] was over 50 µM and the GI50 [17] was 0.145 µM. It also gave a TGI [17] of over 50 µM, a GI50 [18] of 0.171 µM and a TGI [18] of over 50 µM. For the same compound, the GI50 [19] was 11.5 µM, the TGI [19] was over 50 µM and the GI50 [20] was 0.21 µM. For the same compound, the TGI [20] was over 50 µM, the GI50 [21] was 3.63 µM and the TGI [21] was over 50 µM. It also gave a GI50 [22] of 0.258 µM, a TGI [22] of 2.33 µM and a GI50 [23] of over 20 µM. The TGI [23] was over 50 µM, the GI50 [24] was 2.56 µM and the TGI [24] was over 50 µM. It also gave a GI50 [25] of 0.903 µM, a TGI [25] of over 50 µM and a GI50 [26] of 0.306 µM. For the same compound, the TGI [26] was 1.72 µM, the GI50 [27] was 1.6 µM and the TGI [27] was over 50 µM. It also gave a GI50 [28] of 0.673 µM, a TGI [28] of over 32.8 µM and a GI50 [29] of 0.368 µM. The TGI [29] was over 50 µM, the GI50 [30] was 1.14 µM and the TGI [30] was over 50 µM. It also gave a GI50 [31] of 2.16 µM, a TGI [31] of over 50 µM and a GI50 [32] of 0.367 µM. It also gave a TGI [32] of over 50 µM, a GI50 [33] of 3.01 µM and a TGI [33] of over 50 µM. The TGI [34] was over 50 µM, the GI50 [35] was 0.363 µM and the TGI [35] was over 50 µM. It also gave a GI50 [36] of 5.85 µM, a TGI [36] of 28.2 µM and a GI50 [37] of 0.265 µM. It also gave a TGI [37] of over 11.8 µM, a GI50 [38] of 0.46 µM and a TGI [38] of over 50 µM. For the same compound, the GI50 [39] was 1.91 µM, the TGI [39] was over 50 µM and the GI50 [40] was 1.92 µM. The TGI [40] was over 50 µM, the GI50 [41] was 0.844 µM and the TGI [41] was over 50 µM. For the same compound, the GI50 [42] was 0.214 µM, the TGI [42] was over 50 µM and the GI50 [43] was 0.771 µM. For the same compound, the TGI [43] was over 50 µM, the GI50 [44] was 0.312 µM and the TGI [44] was over 50 µM. The GI50 [45] was 0.831 µM, the TGI [45] was 3.47 µM and the GI50 [46] was 0.296 µM. For the same compound, the TGI [46] was 2.55 µM, the GI50 [47] was 5.31 µM and the TGI [47] was over 36 µM. It also gave a GI50 [48] of 0.371 µM, a TGI [48] of over 50 µM and a GI50 [49] of 1.73 µM. For the same compound, the TGI [49] was over 29.8 µM, the GI50 [50] was 0.275 µM and the TGI [50] was over 50 µM. The GI50 [51] was 0.28 µM, the TGI [51] was over 50 µM and the GI50 [52] was 0.198 µM. It also gave a TGI [52] of 1.16 µM, a GI50 [53] of 0.556 µM and a TGI [53] of 8.95 µM. It also gave a GI50 [54] of 0.168 µM, a TGI [54] of over 20.3 µM and a GI50 [55] of 0.18 µM. It also gave a TGI [55] of over 50 µM, a GI50 [56] of 14.1 µM and a TGI [56] of over 50 µM. For the same compound, the GI50 [57] was 0.245 µM, the TGI [57] was over 50 µM and the GI50 [58] was 0.109 µM. It also gave a TGI [58] of 0.29 µM.

Compound `COc1cc(NC(=O)c2ccc(C(F)(F)F)nc2Nc2cc(Cl)ccc2C)cc(OC)c1OC` has a GI50 [1] of 6.49 µM, a TGI [1] of 21.6 µM and a GI50 [2] of 10.4 µM. For the same compound, the TGI [2] was 30.5 µM, the GI50 [3] was 4.64 µM and the TGI [3] was 20.8 µM. It also gave a GI50 [4] of 2.53 µM, a TGI [4] of 17 µM and a GI50 [5] of 7 µM. The TGI [5] was 20.6 µM, the GI50 [6] was 6.56 µM and the TGI [6] was 21.4 µM. For the same compound, the GI50 [7] was 8.16 µM, the TGI [7] was 28.6 µM and the GI50 [8] was 1.89 µM. It also gave a TGI [8] of 12.2 µM, a GI50 [9] of 5.66 µM and a TGI [9] of 24.4 µM. For the same compound, the GI50 [10] was 2.94 µM, the TGI [10] was 14.3 µM and the GI50 [11] was 1.18 µM. For the same compound, the TGI [11] was 16.3 µM, the GI50 [12] was 1.77 µM and the TGI [12] was 25.9 µM. It also gave a GI50 [13] of 12.6 µM, a TGI [13] of 39.6 µM and a GI50 [14] of 3.78 µM. The TGI [14] was 27.4 µM, the GI50 [15] was 4.27 µM and the TGI [15] was 16.9 µM. The GI50 [16] was 10.8 µM, the TGI [16] was over 80.1 µM and the GI50 [17] was 0.215 µM. For the same compound, the TGI [17] was 1.57 µM, the GI50 [18] was 4.35 µM and the TGI [18] was 19 µM. It also gave a GI50 [19] of 7.69 µM, a TGI [19] of 29.6 µM and a GI50 [20] of 2.93 µM. It also gave a TGI [20] of 14.1 µM, a GI50 [21] of 5.13 µM and a TGI [21] of 34 µM. It also gave a GI50 [22] of 3.07 µM, a TGI [22] of 24.4 µM and a GI50 [23] of 4.55 µM. The TGI [23] was 19.7 µM, the GI50 [24] was 7.76 µM and the TGI [24] was 24.2 µM. For the same compound, the GI50 [25] was 3.06 µM, the TGI [25] was 27.8 µM and the GI50 [26] was 9.89 µM. The TGI [26] was 50.8 µM, the GI50 [27] was 12.3 µM and the TGI [27] was 35.6 µM. For the same compound, the GI50 [28] was 0.801 µM, the TGI [28] was 11 µM and the GI50 [29] was 5.1 µM. It also gave a TGI [29] of 16.6 µM, a GI50 [30] of 6.63 µM and a TGI [30] of 27.8 µM. For the same compound, the GI50 [31] was 4.72 µM, the TGI [31] was 21.4 µM and the GI50 [32] was 0.452 µM. For the same compound, the TGI [32] was 22 µM, the GI50 [33] was 15.8 µM and the TGI [33] was over 67.9 µM. It also gave a GI50 [34] of 3.16 µM, a TGI [34] of 43.5 µM and a GI50 [35] of 0.852 µM. The TGI [35] was 20.2 µM, the GI50 [36] was 4.14 µM and the TGI [36] was 18.2 µM. It also gave a GI50 [37] of 5.91 µM, a TGI [37] of 48.3 µM and a GI50 [38] of 3.99 µM. The TGI [38] was 27.1 µM, the GI50 [39] was 3.48 µM and the TGI [39] was 16 µM. The GI50 [40] was 9.84 µM, the TGI [40] was 47.7 µM and the GI50 [41] was 4.88 µM. The TGI [41] was 41.8 µM, the GI50 [42] was 3.9 µM and the TGI [42] was 19.4 µM. The GI50 [43] was 4.54 µM, the TGI [43] was 37.6 µM and the GI50 [44] was 6 µM. For the same compound, the TGI [44] was 45.7 µM, the GI50 [45] was 6.52 µM and the TGI [45] was 27.9 µM. For the same compound, the GI50 [46] was 2.93 µM, the TGI [46] was 18.2 µM and the GI50 [47] was 0.985 µM. For the same compound, the TGI [47] was 15 µM, the TGI [48] was 0.823 µM and the GI50 [49] was 11.2 µM. The TGI [49] was 32.8 µM, the GI50 [50] was 7.06 µM and the TGI [50] was 20 µM. It also gave a GI50 [51] of 1.75 µM, a TGI [51] of 12.3 µM and a GI50 [52] of 6.47 µM. It also gave a TGI [52] of 34.1 µM, a GI50 [53] of 0.194 µM and a TGI [53] of 7.8 µM. For the same compound, the GI50 [54] was 8.12 µM, the TGI [54] was 22.9 µM and the GI50 [55] was 4.51 µM. For the same compound, the TGI [55] was 22 µM, the GI50 [56] was 8.74 µM and the TGI [56] was 27 µM. The GI50 [57] was 6 µM, the TGI [57] was 21.3 µM and the GI50 [58] was 4.94 µM. The TGI [58] was 34.2 µM.

Reference: PubChem BioAssay (NCI)
